# Test results from EP2623502A1, “NOVEL COMPOUND HAVING STRIGOLACTONE-LIKE ACTIVITY AND USE THEREOF” (Riken, priority 2010, dated 2012).
# How the values were obtained:
# parasitic weed = assay: Parasitic weed germination-inducing activity (result not shown); assay type: in vivo; details: compared with p-BPMF
# Description: In this Example, the seeds of a parasitic weed Orobanche minor or Striga hermonthica were used, and the strigolactone-like compound of the present invention was examined for its parasitic weed germination-promoting activity.
# The Striga hermonthica seeds were dipped in a 0.5% sodium hypochlorite solution containing 0.03% Tween and sterilized by treatment for 3 minutes using an ultrasonic generator. The seeds were washed three times with sterilized water and surface-dried at 27°C. Then, approximately 50 seeds were left, for preculture, at room temperature for 10 to 12 days under dark conditions on an 8-mm glass fiber filter paper moistened with 50 µl of sterilized water. A solution of each test compound concentration-adjusted by dissolution in sterilized water was used in bioassay. A filter paper was placed on a 5-cm Petri dish, and 1 ml of the test compound solution or sterilized water for comparison was added thereto. The glass fiber filter paper with the precultured parasitic weed seeds placed thereon was put on the resulting Petri dish and cultured at 30°C for 24 hours, followed by calculation of the germination rate. The test compounds used were the strigolactone-like compound BPMF shown in Figure 1A and GR24 as control at a concentration of 50 µM. […]
# rice d10 variant = assay: Tiller (rice branching) inhibitory activity in hydroponic culture; assay type: in vivo; details: for activity of inhibiting the morphology of the tiller / length of the secondary tiller: rice d10 variant; for length of the secondary tiller: compared with untreated d10 variant (Figure 4)
# Description: In this Example, a rice d10 variant (Arite et al., Plant J, 51 (6) 1019-1029 (2007)) was used, and the strigolactone-like compound of the present invention was examined for its effects on this variant. […] In this d10 variant, the functions of a strigolactone biosynthetic enzyme are inhibited by the variation of the strigolactone biosynthetic gene so that the amount of endogenous strigolactone is decreased.
# First, rice seeds were sterilized for 30 minutes with 2.5% sodium hypochlorite containing 0.01% Tween-20 and then washed with sterilized water. Then, the seeds were germinated by culture for 2 days in sterilized water of 25°C under dark conditions. The germinated seeds were transferred to a hydroponic culture medium containing 0.6% agar and grown for 6 days under conditions of a 16-hour light period and an 8-hour dark period under a fluorescent light. […] The number of tillers and the length of each tiller were determined. In this context, the test compounds used were the strigolactone-like compounds BPMF, TFTF, CPMF, NPMF, FPMF, and IPMF shown in Figure 1A, NaMF described in Synthesis Example 3, and GR24 as a control at a concentration of 1 µM, 100 nM, or 10 nM.
# In the same way as in Example 1(1), the strigolactone-like compound was examined for its effects on rice tillers.
# In this context, the test compounds used were p-CPMF, m-CPMF, o-CPMF, o-FPMF (1-14), o-BPMF (1-15), p-BPMF, 1-NaphMF (1-16), 2-NaphMF (NaMF), CNMF (1-17), CQMF (1-19), and TeMF (1-18) and GR24 as a control at a concentration of 1 µM or 100 nM. Also, PMF and p-CBMF were used at a concentration of 1 µM.
# In this context, the test compounds used were 2-1 (2,3-DCMF), 2-2 (2,4-DCMF), 2-3 (2,5-DCMF), and 2-4 (2,6-DCMF) at a concentration of 1 µM, 100 nM, or 10 nM and GR24 as a control at a concentration of 1 µM or 100 nM.
# In this context, the test compounds used were p-BPMF, 2,4-DCMF (2-2), o-BBMF (3-1), o-BPMF (1-15), o-CBMF (3-2), o-CPMF, and o-FPMF (1-14) at a concentration of 100 nM or 10 nM, 2-16, 2-6, 2-17, 2-18, and 2-19 at a concentration of 0.1 µM or 1 µM, and GR24 as a control at a concentration of 1 µM or 100 nM.
# [1] = in water at 20°C; cited from earlier work
# [2] = system: Arabidopsis thaliana max3 variant; assay: Branching inhibitory activity in hydroponic culture; assay type: in vivo; details: for activity of inhibiting the morphology of the tiller of the max3 variant: 5 µM in hydroponic culture solution, 15 days (Figure 6)
# From the text: In this Example, the strigolactone-like compound BPMF of the present invention was examined for its effects on an Arabidopsis thaliana max3 variant. The Arabidopsis thaliana max3 variant is a strigolactone-deficient variant, as in the rice d10 variant, and is known to have a larger number of branches (Booker J. et al., Current Biology, 14: 1232-1238 (2004)).
# Briefly speaking, the surfaces of the respective seeds of wild-type Arabidopsis thaliana and the max3 variant were separately sterilized for 5 minutes with a 1% aqueous sodium hypochlorite solution. The thus-treated seeds of each strain were washed five times with sterilized water and allowed to absorb water at 4°C for 1 day under dark conditions. Then, the seeds were inoculated to a 1/2 MS medium containing 1% sucrose and 0.8% agar and cultured at 22°C for 15 days under conditions of a 16-hour day length under a fluorescent light (60 to 70 µmol m^-2 s^-1). […] Nine healthy seedlings were selected from each pot and further hydroponically cultured for 15 days (a total of 30 days) so as to prevent the above-ground part from being wetted by the hydroponic culture solution. The test compounds used were BPMF and GR24 (control). The test compound-containing hydroponic culture solution was replaced every three days.
# endogenous strigolactone = assay: Measurement of amount of endogenous strigolactone (LC/MS-MS); assay type: in vivo, rice (Shiokari); details: 24 hours, 0.1 µM, 1 µM or 10 µM
# Description: In this Example, the amount of strigolactone exudates from a plant treated with the strigolactone-like compound was measured.
# A sterilized solution I (2.5% sodium hypochlorite and 0.01% Tween-20) was added to rice seeds (Shiokari) and shaken at room temperature for 15 minutes. The sterilized solution I was discarded, and a sterilized solution II (2.5% sodium hypochlorite) was added thereto and shaken at room temperature for 15 minutes. In a clean bench, the sterilized solution II was discarded, and the seeds were washed five times with sterilized water and left standing at 25°C for 2 days in a dark place. Two days later, the germinated seeds were transplanted in an agar medium for hydroponic rice culture and left standing at 25°C for 6 days under conditions of a 16-hour light period and an 8-hour dark period. […]
# To each hydroponic rice culture solution, 200 pg of d1-2'-epi-5-deoxystrigol per 10 mL of the hydroponic rice culture solution was added, followed by extraction with ethyl acetate (3 mL) twice. […] The sample was dried, dissolved in 50% acetonitrile, and analyzed by LC/MS-MS.
# To the rice root dipped in acetone, 200 pg of d1-2'-epi-5-deoxystrigol was added, and the root was then disrupted. […] The sample was dried, dissolved in 50% acetonitrile, and analyzed by LC/MS-MS.
# [3] = Stability test in water (residual compound by HPLC); assay type: physicochemical; details: 30 days in water at 20°C, read-out: stably present after being left in water
# Description: The strigolactone-like compound BPMF was left for 30 days in water at 20°C, and change in its activity was then determined. Briefly speaking, rice was hydroponically cultured in the same way as in the hydroponic rice culture solution test conducted in Example 3, and the amount of a residual compound in the resulting solution was calculated using HPLC. First, the hydroponic culture solution adjusted to a predetermined concentration was collected at regular intervals and filtered through a filter. Then, a predetermined amount (e.g., 10 µl) was analyzed by HPLC. The content was determined on the basis of an area value, and the degree of decomposition was calculated by comparison with a standard.
# [4] = concentration of 100 nM, Example 10 (Figures 16-1, 16-2)
# [5] = concentration of 100 nM, Example 8 (Figure 14)
structure (smiles),measurement,setting,value
CC1=CC(Oc2ccccc2Br)OC1=O (stereo not shown) [o-BPMF],parasitic weed germination-inducing activity,parasitic weed,stronger parasitic weed germination-inducing activity than that of p-BPMF
same,tiller inhibitory activity,rice d10 variant; result not shown,weak tiller inhibitory activity
same,activity of inhibiting the morphology of the tiller,rice d10 variant; [4],high activity
CC1=CC(Oc2ccc(I)cc2I)OC1=O (stereo not shown) [2-17],activity of inhibiting the morphology of the tiller,rice d10 variant; [4],high activity
CC1=CC(Oc2ccccc2Cl)OC1=O (stereo not shown) [o-CPMF],activity of inhibiting the morphology of the tiller,rice d10 variant; [4],high activity
CC1=CC(OC=C2C(=O)OC3C4=C(CCCC4(C)C)CC23)OC1=O (stereo not shown) [5-DS],half-life,[1],approximately 1.5 days
CC1=CC(Oc2ccc(Br)cc2Br)OC1=O (stereo not shown) [2-6],activity of inhibiting the morphology of the tiller,rice d10 variant; [4],high activity
CC1=CC(Oc2ccc(C#N)cc2C#N)OC1=O (stereo not shown) [2-19],activity of inhibiting the morphology of the tiller,rice d10 variant; [4],high activity
"CC1=CC(OC=C2C(=O)OC3c4ccccc4CC23)OC1=O (stereo not shown) [GR24, reference compound]",half-life,[1],approximately 10 days
same,activity of inhibiting the morphology of the tiller of the max3 variant,[2],exhibited the activity of inhibiting the morphology of the tiller of the max3 variant
CC1=CC(Oc2ccccc2F)OC1=O (stereo not shown) [o-FPMF],activity of inhibiting the morphology of the tiller,rice d10 variant; [4],high activity
CC1=CC(Oc2cc(Cl)ccc2Cl)OC1=O (stereo not shown) [2-3],activity of inhibiting the morphology of the tiller,rice d10 variant; [5],high activity
CC1=CC(Oc2ccc(C(F)(F)F)cc2)OC1=O (stereo not shown) [TFTF],length of the secondary tiller,rice d10 variant,obviously inhibited
CC1=CC(Oc2ccc(Cl)cc2Cl)OC1=O (stereo not shown) [2-2],activity of inhibiting the morphology of the tiller,rice d10 variant; [5],high activity
same,activity of inhibiting the morphology of the tiller,rice d10 variant; [4],high activity
CC1=CC(Oc2ccc(C(F)(F)F)cc2C(F)(F)F)OC1=O (stereo not shown) [2-18],activity of inhibiting the morphology of the tiller,rice d10 variant; [4],high activity
"CC1=CC(Oc2ccc(Br)cc2)OC1=O (stereo not shown) [BPMF, 5-(4-bromophenoxy)-3-methylfuran-2(5H)-one]",amount of endogenous strigolactone exudates from the rice root to the hydroponic culture solution,endogenous strigolactone; compared with GR24 (Figure 10),"decreased the amount of natural strigolactone synthesized, and this effect was higher than that of GR24"
same,amount of plant natural strigolactone synthesized,endogenous strigolactone; in the hydroponic rice culture solution and the rice root,decreased
same,morphology of the d10 variant,"rice d10 variant; after 12-day growth, 10 µM (Figure 3)",restored its morphology similar to that of the wild-type strain
same,concentration-dependent activity against the rice d10 variant,rice d10 variant; compared with GR24 (Figure 4),"strong activity, which was larger than that of the typical non-natural strigolactone GR24"
same,time-dependent change in the number of tillers,"rice d10 variant; d10 variant, 27, 37 and 47 days after treatment with 1 nM or 10 nM (Figure 5)",more effective and have more persistent activity than GR24
same,length of the secondary tiller,rice d10 variant,obviously inhibited
same,activity of inhibiting the morphology of the tiller,rice d10 variant; concentration of 10 nM (Figure 2),strongest activity
same,activity of inhibiting the morphology of the tiller,"rice d10 variant; concentration of 100 nM, Example 6 (Figures 12-1 to 12-3)",strongest activity
same,activity of inhibiting the morphology of the tiller,rice d10 variant; [4],high activity
same,activity of inhibiting the morphology of the tiller of the max3 variant,[2],exhibited the activity of inhibiting the morphology of the tiller of the max3 variant
same,morphology of the max3 variant,"[2]; after 30-day growth, 1 µM (Figure 7)",restored its morphology similar to that of the wild-type strain
same,remaining at 720 h,[3],≥ 95%
CC1=CC(Oc2cccc(Cl)c2Cl)OC1=O (stereo not shown) [2-1],activity of inhibiting the morphology of the tiller,rice d10 variant; [5],high activity
CC1=CC(Oc2ccc(F)cc2F)OC1=O (stereo not shown) [2-16],activity of inhibiting the morphology of the tiller,rice d10 variant; [4],high activity
CC1=CC(Oc2ccc3ccccc3c2)OC1=O (stereo not shown) [NaMF],activity of inhibiting the morphology of the tiller,"rice d10 variant; 6 days in hydroponic solution with compound at 1 µM, 100 nM or 10 nM (Figure 2)",slightly weaker than that of the other compounds
